Experimental data reported in article doi:10.1101/2023.05.15.540887, “Comparative analysis of drug-like EP300/CREBBP acetyltransferase inhibitors” (bioRxiv, 2023).
pIC50: −log10 of the molar value. Several values for one entry are separate records, joined by “and”; a condition that tells them apart may be missing. Identical values can stand only once.

What was measured:
[1] = test system: ACHN; assay: NCI-60 growth inhibition (sulforhodamine B); type: cell-based; conditions: Homo sapiens, Renal Cancer, negative log of Molar value
[2] = test system: MCF10A PANK4 KO+PANK4 WT cells; assay: Sulforhodamine B cell growth assay, MCF10A PANK4 KO+PANK4 WT; type: cell-based, human
[3] = test system: 786-0; assay: NCI-60 growth inhibition (sulforhodamine B); type: cell-based; conditions: Homo sapiens, 786-0, Renal Cancer, negative log of Molar value, LCONC -8, EXPID 2301NS84
[4] = test system: MALME-3M; assay: NCI-60 growth inhibition (sulforhodamine B); type: cell-based, human; conditions: MALME-3M (Melanoma), negative log of Molar conc., LCONC -8
[5] = test system: histone H3 acetylation in T-47D cells; assay: Quantitative LC-MS analysis of histone H3 acetylation in T-47D cells; type: cell-based, human; conditions: 24 h
Excerpt: In principle the phenotype elicited by any single small molecule can be due to either an on- or off-target effect; however, if multiple chemically distinct small molecules designed to target a single gene all elicit the same phenotype, one’s confidence in their on-target mechanism becomes greater. As such, we sought to apply our knowledge of the comparative potencies of 1-3 to test whether the simplest phenotype caused by EP300/CREBBP inhibitors – cell death – was consistent with their effects on histone acetylation and a putative on-target mechanism. Compounds 1-3 were submitted for analysis in the NCI-60 screen, which has been used since 1990 to analyze the growth inhibitor effects of small molecules across a range of transformed cell lines derived from diverse tissues of origin including colorectal, renal, ovarian, prostate, lung, breast, and central nervous system tumors.[28] […] These trends were further confirmed using an orthogonal ATP-Glo assay in MCF-7 cells (Fig. S2). Subsequently, the COMPARE algorithm was used to compare the patterns of growth inhibition elicited by 1-3 in the NCI-60 assay against the >150,000 compounds analyzed in the screen to date.[29] […] Finally, the specificity of CPI-1612 (3) was directly assessed using quantitative LC-MS analysis of histone acetylation in treated cells,[33] focusing on four abundant histone acetylation markers whose writers are well-characterized: H3K9Ac (written by KAT2A/B), H3K14Ac (KAT7), H3K18Ac (EP300/CREBBP), and H3K23Ac (KAT6A/B; Fig. 3e).[26] […] An increase in the levels of singly modified H3K23Ac peptide coincided with specific loss of H3K18Ac from K18/K23 diacetylated peptide, indicative of orthogonal regulation. Overall, the parallel trends in the biochemical and cellular potencies of EP300/CREBBP inhibitors are consistent with an on-target mechanism for 1-3 and further highlight the relatively high potency of CPI-1612 (3).
T-47D cells were plated at 4 x 10^6 cells per plate in 10 cm dishes in 10 mL of media. After 16-24 h cells were treated with 5, 50, or 500 nM of 3. Compound 3 was dosed from stock solutions equal to 100x the final concentration in RPMI-1640. When necessary additional DMSO was added to maintain a constant concentration of 0.1%. Controls were treated with vehicle DMSO (0.1%). After 24 h, cells were washed with 5 mL ice cold 1x PBS, scraped in 5 mL of 1x PBS, transferred to a pre-chilled 15 mL tube, centrifuged (800 rcf x 5 min), and either snap frozen or immediately processed via the following protocol.^5 Pellets were washed twice and resuspended in 400 µL NIB (15 mM pH 7.5 Tris-HCl, 60 mM KCl, 15 mM NaCl, 5 mM MgCl2, 1 mM CaCl2, 250 mM sucrose, 1X protease inhibitor cocktail [Cell Signaling Technology #5871]), 1 mM DTT, and 10 mM sodium butyrate) with 0.3% IGEPAL CA-630 to lyse cells. Suspensions were transferred into tubes on ice and incubated for >5 min. Nuclei were pelleted (700 rcf, 4 °C , 5 min) and the supernatant discarded. Pelleted nuclei were subjected to two cycles of a wash with 500 µL NIB (without IGEPAL CA-630) followed by centrifugation (700 rcf, 4 °C , 5 min) in order to remove all IGEPAL CA-630. Nuclei were re-suspended in 200 µL 0.2 N H2SO4 and rotated at 4 °C for 2 h. Samples were then centrifuged (3,400 rcf, 4 °C , 5 min) and supernatants transferred into new tubes (pellets discarded). 66 µL of 100% TCA was added to each sample (final TCA concentration: 20%) and tubes were inverted once. Histones were precipitated at 4 °C for 16 h, then centrifuged (3,400 rcf, 4 °C , 5 min) and supernatants carefully discarded, with histones now visible as films on the sides and at the bottom of tubes. Histones were subjected to two cycles of washing (0.5 mL of ice-cold acetone + 1% 1M HCl, followed by 1 mL of 100% ice-cold acetone) followed by centrifugation (11,000 rcf, 4 °C , 5 min) after each step. Samples were air dried at room temperature and resuspended in 30 µL of ddH2O. […]

[6] = test system: IGROV1; assay: NCI-60 growth inhibition (sulforhodamine B); type: cell-based, human; conditions: IGROV1 (Ovarian Cancer), negative log of Molar conc., LCONC -8
[7] = test system: UO-31; assay: NCI-60 growth inhibition (sulforhodamine B); type: cell-based; conditions: Homo sapiens, UO-31, Renal Cancer, negative log of Molar value, LCONC -8, EXPID 2301NS84
[8] = test system: COLO205; assay: NCI-60 growth inhibition (sulforhodamine B); type: cell-based, human; conditions: COLO 205 (Colon Cancer), negative log of Molar conc., LCONC -8

## C[C@H](CN[C@@H](C(=O)Nc1ccc(-c2cnn(C)c2)cn1)c1ccccc1)c1ccc(C#N)cc1 [CPI-1612]
[1]; LCONC -8, EXPID 2301NS84, read-out: GI50 NLOGVALUE (converted)
  GI50: 12.9 nM
[1]; LCONC -8, EXPID 2301NS84, read-out: IC50 NLOGVALUE (converted)
  IC50: 30.9 nM
[2]; Homo sapiens, MCF-10A KO+PANK4 WT, 72 h
  pIC50: 8.05
[2]; PANK4 KO+WT cells, 1 μM
  growth inhibition activity at 1 μM: remains active
[3]; read-out: GI50 NLOGVALUE (converted)
  GI50: 55000 nM
[3]; read-out: IC50 NLOGVALUE
  pIC50: < 4.00
[3]; read-out: LC50 NLOGVALUE
  CC50: > 100000 nM
[4]; Homo sapiens, read-out: GI50 NLOGVALUE
  GI50: < 10 nM
[4]; Homo sapiens, read-out: IC50 NLOGVALUE
  pIC50: < 4.00
[4]; Homo sapiens, read-out: LC50 NLOGVALUE
  CC50: > 100000 nM
[4]
  TGI NLOGVALUE: 4
[5]; T-47D cells, 5, 50 or 500 nM, LC-MS
  specificity on histone H3 acetylation marks (H3K9Ac, H3K14Ac, H3K18Ac, H3K23Ac): affected the abundance of only the EP300/CREBBP-dependent peptides containing H3K18Ac
[5]; T-47D, 5 nM, Rep1-3
  ratio normalized to largest mean (vehicle or 500 nM), H3_9_17 K9ac (K9Ac): 160.77 and 142.38
  ratio normalized to largest mean (vehicle or 500 nM), H3_18_26 K18ac (K18Ac): 31.25 and 26.23 and 16.75
  ratio normalized to largest mean (vehicle or 500 nM), summed H3_9_17 K14ac peptides (K14Ac): 93.75 and 92.27 and 95.59
  ratio, H3_9_17 K9ac (K9Ac): 0.039 and 0.034
  ratio, H3_18_26 K18ac (K18Ac): 0.0063 and 0.0053 and 0.0034
  ratio, H3_18_26 K18acK23ac (K18K23Ac): 0.0043 and 0.0044 and 0.0039
  ratio, H3_18_26 K23ac (K23Ac): 0.2133 and 0.2165 and 0.1842
  ratio, summed H3_9_17 K14ac peptides (K14Ac): 0.181 and 0.179 and 0.185
[5]; T-47D, 50 nM, Rep1-3
  ratio normalized to largest mean (vehicle or 500 nM), summed H3_9_17 K14ac peptides (K14Ac): 92.31 and 100.80 and 86.46
  ratio, H3_18_26 K23ac (K23Ac): 0.2929 and 0.2070 and 0.3135
  ratio, summed H3_9_17 K14ac peptides (K14Ac): 0.167 and 0.179 and 0.195
[5]; T-47D, 500 nM, Rep1-3
  ratio normalized to largest mean (vehicle or 500 nM), H3_18_26 K18ac (K18Ac): 2.61 and 1.89 and 1.57
  ratio normalized to largest mean (vehicle or 500 nM), summed H3_9_17 K14ac peptides (K14Ac): 103.05 and 88.46 and 106.21
  ratio, H3_18_26 K18ac (K18Ac): 0.0005 and 0.000379 and 0.0003
  ratio, H3_18_26 K23ac (K23Ac): 0.2977 and 0.3570 and 0.3048
  ratio, summed H3_9_17 K14ac peptides (K14Ac): 0.199 and 0.171 and 0.206
[6]; Homo sapiens, IGROV-1, read-out: GI50 NLOGVALUE (converted)
  GI50: 75.9 nM
[6]; Homo sapiens, IGROV-1, read-out: IC50 NLOGVALUE (converted)
  IC50: 57500 nM
[6]; Homo sapiens, IGROV-1, read-out: LC50 NLOGVALUE
  CC50: > 100000 nM
[6]
  TGI NLOGVALUE: 4
[7]; read-out: GI50 NLOGVALUE
  GI50: < 10 nM
[7]; read-out: IC50 NLOGVALUE (converted)
  IC50: 28.2 nM
[7]; read-out: LC50 NLOGVALUE
  CC50: > 100000 nM
[8]
  TGI NLOGVALUE: 4
[8]; Homo sapiens, read-out: GI50 NLOGVALUE (converted)
  GI50: 24.5 nM
[8]; Homo sapiens, read-out: IC50 NLOGVALUE (converted)
  IC50: 417 nM
